The text below walks through data of PubChem BioAssay (NCI).

Among the test systems are NCI-H226 lung; T-47D breast; NCI-H522 lung; RXF 393 renal; HT29 colon; SN12C renal; HOP-92 NSCLC; U251 CNS; SF-268 CNS; SK-MEL-28 melanoma; HCT-15 colon.
Holding throughout (experiment): DTP human tumour cell line panel, 48 h

Each structure is given as a SMILES string.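 A five-concentration, 48-hour dose response in 96-well plates underlies each endpoint, interpolated linearly between surrounding concentrations. At the TGI there is no net growth.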

On to `COc1ccc2c(c1)c(=O)c1c(NCCCN(C)CCCNc3ccc4c(=O)n(CCN(C)C)c(=O)n5c6ccc(OC)cc6c(=O)c3c45)ccc3c(=O)n(CCN(C)C)c(=O)n2c31`, for which the TGI in the experiment on NCI-H226 lung stood at 0.409 µM; in the experiment on T-47D breast, 9.43 µM; with NCI-H522 lung, 0.544 µM; with RXF 393 renal it was 0.602 µM; with HT29 colon, 1.28 µM; with SN12C renal, 1.43 µM. For the same compound, the TGI with HOP-92 NSCLC stood at 0.941 µM; in the experiment on U251 CNS, 1.26 µM; with SF-268 CNS, 1.88 µM; in the experiment on SK-MEL-28 melanoma it was 2.32 µM; with HCT-15 colon it was 0.617 µM.
Regarding `Cc1ccc(S(=O)(=O)Nc2nc3ccccc3c(=O)n2C2CCCCC2)cc1`, the TGI with NCI-H226 lung, in the experiment with T-47D breast, in the experiment with NCI-H522 lung, with RXF 393 renal, with HT29 colon and with SN12C renal was greater than 100 µM in each case. For the same compound, the TGI in the experiment with HOP-92 NSCLC, in the experiment with U251 CNS, in the experiment on SF-268 CNS, in the experiment with SK-MEL-28 melanoma and with HCT-15 colon was greater than 100 µM throughout.
As for `N#CC(c1nc2ccccc2s1)c1nc(Cl)ncc1Br` (configuration not stated), the concentration for total growth inhibition (TGI) with NCI-H226 lung is greater than 100 µM; in the experiment with T-47D breast, greater than 100 µM; in the experiment with NCI-H522 lung, 62.1 µM; with RXF 393 renal, 90.3 µM; in the experiment with HT29 colon it was greater than 100 µM; with SN12C renal it was greater than 100 µM. Further, the total growth inhibition concentration (TGI) in the experiment with HOP-92 NSCLC was 52 µM; in the experiment on U251 CNS it was greater than 100 µM; in the experiment with SF-268 CNS, greater than 100 µM; in the experiment on SK-MEL-28 melanoma, greater than 100 µM; with HCT-15 colon it was greater than 100 µM.
Consider `NC(Cc1ccccc1)=NCC(=O)O`, for which the concentration for total growth inhibition (TGI) in the experiment on NCI-H226 lung, with T-47D breast, in the experiment on NCI-H522 lung, with RXF 393 renal, in the experiment with HT29 colon and in the experiment with SN12C renal was greater than 100 µM throughout. The concentration for total growth inhibition (TGI) with HOP-92 NSCLC, in the experiment on U251 CNS, in the experiment with SF-268 CNS, with SK-MEL-28 melanoma and in the experiment with HCT-15 colon was greater than 100 µM in each case.
As to `COc1cc(CCNC2=CC(=O)c3cccnc3C2=O)ccc1O`, the TGI in the experiment on NCI-H226 lung turned out to be 3.53 µM; in the experiment on T-47D breast, 35.1 µM; with NCI-H522 lung, 2.26 µM; with RXF 393 renal, 4.07 µM; in the experiment on HT29 colon it was 4.38 µM; in the experiment on SN12C renal, 2.43 µM. Also, the total growth inhibition concentration (TGI) with HOP-92 NSCLC is 19 µM; with U251 CNS, 7.05 µM; with SF-268 CNS it was 7.7 µM; with SK-MEL-28 melanoma, 2.56 µM; in the experiment on HCT-15 colon, 2.58 µM.
Consider `COC(=O)c1ccc(CCC2=CC(=O)C(Br)=CC2=O)cc1`, for which the TGI came out at 30.5 µM in the experiment on NCI-H226 lung; 70.9 µM in the experiment with T-47D breast; 10.5 µM with NCI-H522 lung; 32.3 µM in the experiment with RXF 393 renal; 30.9 µM in the experiment on HT29 colon; 32.5 µM with SN12C renal. The TGI in the experiment with HOP-92 NSCLC worked out at 11.9 µM; in the experiment on U251 CNS, 32.5 µM; with SF-268 CNS, 43 µM; in the experiment with SK-MEL-28 melanoma it was 31.1 µM; in the experiment on HCT-15 colon, 27.6 µM.
With `COc1ccc(/C=C2\Sc3nnc(C)n3N=C2c2cc(F)c(Cl)cc2Cl)cc1OC`, the TGI in the experiment with NCI-H226 lung is 51.8 µM; with T-47D breast it was greater than 100 µM; in the experiment with NCI-H522 lung it was 38.7 µM; with RXF 393 renal it was 32.7 µM; with HT29 colon, 26.6 µM; with SN12C renal, 34.5 µM. For the same compound, the TGI in the experiment on HOP-92 NSCLC came to 28.6 µM; with U251 CNS, 30.2 µM; in the experiment with SF-268 CNS, 50.9 µM; in the experiment with SK-MEL-28 melanoma it was 49.2 µM; in the experiment on HCT-15 colon, 21.9 µM.
Take `O=c1[nH]nc(-c2ccc([N+](=O)[O-])cc2)n1/N=C/c1ccc([N+](=O)[O-])cc1`: the TGI in the experiment on NCI-H226 lung, in the experiment on T-47D breast, in the experiment on NCI-H522 lung, with RXF 393 renal, in the experiment with HT29 colon and in the experiment on SN12C renal was greater than 100 µM throughout. Further, the total growth inhibition concentration (TGI) with HOP-92 NSCLC, in the experiment on U251 CNS, in the experiment with SF-268 CNS, with SK-MEL-28 melanoma and in the experiment with HCT-15 colon was greater than 100 µM throughout.
`Cc1c(C#N)c2nnn(-c3ccc([N+](=O)[O-])cc3)c(=O)n2c1-c1ccccc1`: the total growth inhibition concentration (TGI) with NCI-H226 lung came out at 26.9 µM; in the experiment on T-47D breast, 14.3 µM; in the experiment with NCI-H522 lung, 13.9 µM; in the experiment with RXF 393 renal, 31.2 µM; in the experiment on HT29 colon it was 23.7 µM; in the experiment on SN12C renal, 24.9 µM. Also, the concentration for total growth inhibition (TGI) worked out at 31.4 µM in the experiment with HOP-92 NSCLC; 14.5 µM with U251 CNS; 32.4 µM in the experiment on SF-268 CNS; 79.7 µM in the experiment with SK-MEL-28 melanoma; 24.4 µM in the experiment on HCT-15 colon.
Consider `CC(/C=N/N(C)C1=NCCCCN1)=N/N(C)C1=NCCCCN1`, for which the TGI in the experiment on NCI-H226 lung, in the experiment on T-47D breast, in the experiment with NCI-H522 lung, in the experiment on RXF 393 renal, in the experiment with HT29 colon and in the experiment with SN12C renal was greater than 100 µM in each case. Further, the TGI with HOP-92 NSCLC, in the experiment with U251 CNS, in the experiment on SF-268 CNS, in the experiment on SK-MEL-28 melanoma and in the experiment with HCT-15 colon was greater than 100 µM throughout.
As to `O=C1OC(C2Cc3ccccc3C2=O)c2ccccc21` (configuration not stated), the TGI in the experiment with NCI-H226 lung is greater than 100 µM; in the experiment with T-47D breast it was greater than 100 µM; in the experiment with NCI-H522 lung, greater than 100 µM; with RXF 393 renal, greater than 100 µM; with HT29 colon it was 60.5 µM; in the experiment with SN12C renal it was greater than 100 µM. The total growth inhibition concentration (TGI) with HOP-92 NSCLC, in the experiment on U251 CNS, in the experiment on SF-268 CNS, in the experiment with SK-MEL-28 melanoma and in the experiment on HCT-15 colon was greater than 100 µM in each case.
Regarding `Cc1ccc(C(=O)Cc2nc3ncccc3[nH]c2=O)cc1`, the total growth inhibition concentration (TGI) in the experiment on NCI-H226 lung is 66.5 µM; in the experiment with T-47D breast, greater than 100 µM; in the experiment with NCI-H522 lung it was greater than 100 µM; in the experiment on RXF 393 renal, greater than 100 µM; in the experiment with HT29 colon, greater than 100 µM; in the experiment with SN12C renal it was greater than 100 µM. Besides, the concentration for total growth inhibition (TGI) in the experiment with HOP-92 NSCLC is 48.1 µM; in the experiment on U251 CNS, 52.7 µM; with SF-268 CNS it was 99.7 µM; with SK-MEL-28 melanoma, 87.4 µM; in the experiment with HCT-15 colon, greater than 100 µM.

In general, TGI refers to the concentration at which net growth stops. Low values mean more potent growth arrest, high ones less potent growth arrest.
